“Also recorded” adds a separate entry of the source.
How the values were obtained:
HIV infection = settings: cited from earlier work
[1] = test system: HIV in chronically infected cell lines; settings: cited from earlier work
[2] = test system: CMV promoter in 293-EBNA cells; test: AP reporter gene expression from CMV promoter, 293-EBNA cells stably transfected with pCMV.AP; format: cell-based, human cytomegalovirus; human cells; settings: Homo sapiens, 293-EBNA; FIG. 8; read-out: concentration inhibiting AP activity by 50% (CMV assay)
Protocol: An assay for measuring the anti-viral activity of the compounds involves testing the abilities of the compounds to inhibit gene expression directed by specific viral promoters in cell lines. Specifically, a plasmid construct, pCMV.AP, using the human cytomegalovirus (CMV) enhancer and promoter to direct the expression of the secreted human placental alkaline phosphatase reporter gene were transformed into a tumor cell line (e.g., 293-EBNA cells). The cultured cells were treated with various concentrations of the compounds. The expression of the alkaline phosphatase (AP) reporter gene in the individual cultures can then be measured by following the change in absorbance at A405 of the cell conditioned media in the presence of a suitable substrate (e.g., ortho-nitrophenol phosphate) (Berger et al., Gene 66:1,1988).
The construction of expression vectors for secreted placental alkaline phosphatase (sPAP) was performed by obtaining a mammalian episomal expression vector pBL3, derived from the plasmids pMEP4 and pCEP4 (Invitrogen Corp). Specifically, a 600 bp Spe I--Kpn I fragment spanning the CMV promoter from pCEP4 and a 9500 bp Xba I--Kpn I vector fragment from pMEP4 were isolated and ligated together to form pBL3. Full length sPAP cDNA was amplified by PCR using the plasmid pGEM4Z/SEAP (ATCC) as template with primers 5'-[…]-3' (SEQ ID NO. 1) and 5'-[…]-3' (SEQ ID NO. 2). The PCR product was then digested with Xba I and Sal I and inserted between the Nhe I site and the Xho I site within the multiple cloning region of pBL3. The resulting plasmid was designated as PCMV.AP.

[3] = Viability of 293-EBNA cells, Alamar Blue; format: cell-based, human; settings: human, 293-ebna cells; read-out: LD50 (CMV assay, FIG. 9)
Protocol: Cell viability was measured by a colorimetric assay that uses Alamar Blue dye (Alamar, Inc.) to report cell proliferation, viability and cytotoxicity. This vital dye indicates cell activity by serving as substrate for mitochrondrial dehydrogenases for the formation of soluble dyes which can be quantitated by determining the difference in absorbance between A570 and A600 using a plate reader.
Cell viability was measured by a […] assay that uses Alamar Blue dye (Alamar, Inc.) to report cell proliferation, viability and cytotoxicity. This vital dye indicates cell activity by serving as substrate for mitochrondrial dehydrogenases for the formation of soluble dyes which can be quantitated by determining the difference in absorbance between A570 and A600 using a plate reader.
This example illustrates that CT2576 suppressed both tat-dependent and TNF-α induced HIV-LTR transcription with an IC50 of approximately 10 μM. Study of the effects of CT2576 on cell toxicity was performed using the Alamar Blue™ dye (Alamar Biosciences) according to the manufacturer's instructions. CT2576 was not toxic to 293-EBNA cells at concentrations up to 35 μM. To show CT2576 can inhibit HIV expression, CT2576 was tested for the ability to block HIV p24 antigen expression in chronically or acutely infected cells. Specifically, CT2576 inhibited the TNF-α and IL-6 induced and the constitutive expression of HIV in the chronically infected U1 cells and in peripheral blood lymphocytes (PBL) freshly infected with a HIV strain from a clinical isolate with an IC50 of approximately 1 μM. Pharmacological inhibition of synthesis of selected PL may therefore be a novel therapeutic approach to suppression of HIV replication.

[4] = test system: HIV-LTR promoter (tat transactivation) in 293-EBNA cells; test: AP reporter gene expression from HIV-LTR promoter with tat expression vector, 293-EBNA cells; format: cell-based, HIV; human cells
How it was run: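 293-EBNA cells were transiently co-transfected with an HIV-LTR-driven secreted placental alkaline phosphatase reporter and a tat(1–72) expression plasmid. At 24 h, the medium was switched to serum-free AIM V before compounds were added at various concentrations. Secreted AP activity was read colorimetrically at 405 nm 19–24 h later.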

[5] = Viability of 293-EBNA cells (dye not stated); settings: human
[6] = test system: LPAAT (lysophosphatidate acyl-CoA acyltransferase); test: LPAAT inhibition in vitro; format: biochemical, mammalian; settings: Lineweaver-Burke graph
Description: The mammalian cell membrane associated enzyme lysophosphatidate acyl-CoA acyltransferase (LPAAT) catalyzes the transfer of acyl CoA from lysophosphatidic acid (lyso-PA) to phosphatidic acid (PA) species. Certain PA species function as lipid intermediates in cell activation and function directly as intracellular signaling molecules. PA is subsequently dephosphorylated to 1,2-sn diacylglycerol (DAG) via phosphatidate phosphohydrolase (PAH). The compounds that inhibit viral replication, gene expression and viral antigen release in infected cells also have decreased amounts of intracellular PA species that are formed in response to inflammatory cellular activation. […] Therefore, if PA derived from lyso-PA is an important intracellular signaling intermediate for TNF or IL-1 induced viral replication in virally-infectedcells, then inhibitors of PA formation will act to prevent progression of viral diseases by blocking cell signaling to stimulate virion formation.

[7] = test system: HIV-1 in U1 cells (constitutive expression); test: Constitutive HIV-1 p24 antigen expression in chronically infected U1 cells; format: cell-based, HIV-1; human cells; settings: U1 cells plated at high density; in words
Protocol: (§1) Another assay examined the effect of compounds on chronically HIV-1 infected U1 cells. A relatively high density of U1 cells at 10^4 cells/well were incubated in the absence or presence of compounds for 4 days. HIV-1 p24 antigen expression in the culture media was measured by using a ELISA kit (Abbott). Alternatively, U1 cells were plated at a relatively low density of 2×10^3 cell/well plus or minus TNF at 20 pg/ml and plus or minus compounds. The expression of HIV-1 p24 antigen in culture media was measured by ELISA four days later.
(§2) Stable cell lines 293tar, 293tat and 293tat2 were generated by transfections using conditions described in (Tate et al., FASEB J. 4:227-231, 1990) with the plasmid pHIV.AP alone or along with either pHIV.tat or pSV2tat72, respectively. The assay of HIV-1 p24 antigen expression in the chronically HIV-1-infected promonocytic line U1 after 4 days and in acutely infected peripheral blood lymphocytes (PBL) after 7 days were described (Peterson et al., J. Clin. Invest. 89:574-580, 1992, and Brighty et al., Proc Natl. Acad. Sci. USA 88:7802-7805, 1991).
(§3) This example illustrates that CT2576 inhibited both constitutive and cytokine-induced HIV expression in a chronically-infected U1 cell line. A chronically HIV-1 infected human promonocyte cell line, U1 (Poli et al., J. Exp. Med. 172:151-158, 1990), was used as a model to see if the inhibitory effect of CT2576 on HIV-LTR driven reporter gene expression could be extended to block HIV replication per se in infected cells. TNF-α and IL-6 have been reported to upregulate the expression of HIV-1 in U1 cells (Poli et al., Proc Natl. Acad. Sci. USA 91:108-112, 1994). U1 cells were plated onto 24-well microtiter plates to study the dose-response effect of CT2576 on the constitutive (10^4 cells/well), TNF-α or IL-6 mediated (2×10^3 cells/well) expression of HIV-1. CT2576 was capable of inhibiting the constitutive, the TNF-α mediated, as well as the IL-6 mediated expression of HIV in U1 cells with an IC50 value of less than 1 μM (FIG. 17).

[8] = test system: HIV-1 in U1 cells (TNF-α mediated expression); test: TNF-α-mediated HIV-1 p24 antigen expression in chronically infected U1 cells; format: cell-based, HIV-1; human cells; settings: U1 cells; in words
Protocol: as §1, §2, §3

[9] = test system: HIV in infected monocytic cells; test: HIV replication, gene expression and p24 release in infected monocytic cells stimulated by TNF; format: cell-based; settings: TNF activation
Protocol: as §1

[10] = test system: HIV-1 strain JR-CSF in PBL; test: HIV-1 p24 antigen expression in acutely infected peripheral blood lymphocytes (PBL); format: cell-based, HIV-1; human cells; settings: Human immunodeficiency virus 1, Lymphocyte, clinical isolate
Protocol: FIG. 17 illustrates a dose response curves of CT2576 on constitutive, TNF-α, and IL-6-mediated expression of HIV-1 in a chronically infected U1 cell line (left Y-axis) and of CT3537 on HIV expression in PBL acutely infected with the JR-CSF primary isolate (right Y-axis). U1 cells were incubated for four days after the addition of CT2576 with or without TNF-α (20 pg/ml) or IL-6 (1 ng/ml). PBL were inoculated with HIV at 10 ng virus/10^6 cells/well and incubated with various concentrations of CT3537 for 7 days. Each data point represents the average expression levels of HIV-1 p24-antigen in the cell supernatants measured by ELISA from triplicate samples with error bar indicating the SD.
Stable cell lines 293tar, 293tat and 293tat2 were generated by transfections using conditions described in (Tate et al., FASEB J. 4:227-231, 1990) with the plasmid pHIV.AP alone or along with either pHIV.tat or pSV2tat72, respectively. The assay of HIV-1 p24 antigen expression in the chronically HIV-1-infected promonocytic line U1 after 4 days and in acutely infected peripheral blood lymphocytes (PBL) after 7 days were described (Peterson et al., J. Clin. Invest. 89:574-580, 1992, and Brighty et al., Proc Natl. Acad. Sci. USA 88:7802-7805, 1991). […]

[11] = test system: HIV-LTR promoter / tat protein; settings: through interaction with the tat protein; cited from earlier work

Structure (SMILES): Cc1cn([C@H]2C[C@H](N=[N+]=[N-])[C@@H](CO)O2)c(=O)[nH]c1=O [AZT]
- progression of AIDS disease (HIV infection; asymptomatic patients, early stage HIV infection): no delay in the progression of AIDS disease
- CD4+ T cell number (HIV infection; treatment versus placebo group): consistently higher number of CD4^+ T cells
- activity on HIV replication in chronically infected cell lines [1]: not to be active

Structure (SMILES): CCCCCCCCNCC(O)CCCCCCCCCN1C(=O)Cc2ccccc2C1=O (stereo not drawn) [CT1115, N-(11-octylamino-10-hydroxyundecyl)homophthalimide]
- IC50 [2]: 2 to 6 µM
- CC50 [3]: ~5 µM

Structure (SMILES): CCCCCCCCNCC(O)CCCCCCCCCn1c(=O)c2[nH]cnc2n(C)c1=O (stereo not drawn) [CT1416, N-(11-octylamino-10-hydroxyundecyl)-3-methylxanthine]
- IC50 ([4]; Homo sapiens, 293-EBNA, read-out: concentration inhibiting AP expression by 50%): 1 to 4 µM
- IC50 [2]: 2 to 6 µM
- CC50 [3]: ~5 µM
- effect on cell viability / cytotoxicity (293-EBNA cells): some cytotoxicity
- CC50 [5]: ~5 µM

Structure (SMILES): C[C@@H](O)CCCCn1c(=O)c2c(ncn2C)n(C)c1=O [CT1501R, R-1-(5-hydroxyhexyl)-3,7-dimethylxanthine]
- mode of LPAAT inhibition [6]: competitive inhibition
- inhibition of AP expression (HIV-LTR promoter) ([4]; 293-EBNA cells, HIV promoter, in words): No appreciable inhibition of AP expression; also recorded: did not affect AP activity
- suppression of constitutive HIV-1 expression (p24) [7]: suppressed constitutive HIV-1 expression
- suppression of TNFα-mediated HIV-1 expression (p24) [8]: suppressed HIV-1 expression
- antiviral activity in TNF-stimulated infected monocytic cells [9]: inhibiting HIV replication, gene expression and p24 release
- effect on cell viability / cytotoxicity (293-EBNA cells): did not affect AP activity and cell viability significantly

Structure (SMILES): CCCCCCCCN(CC(CCCCCCCCCn1c(=O)c2c(ncn2C)n(C)c1=O)OC(C)=O)C(C)=O (stereo not drawn) [CT3537, 1-[11-(N-octylacetamido)-10-acetoxyundecyl]-3,7-dimethylxanthine]
- IC50 [10]: < 1 µM

Structure (SMILES): CNC1=Nc2ccc(Cl)cc2C(c2ccc[nH]2)=NC1 [Ro 24-7429]
- block of HIV-LTR promoter transcription [11]: blocks HIV-LTR promoter transcription

— patent US5985926A, “Method for inhibiting intracellular viral replication” (Cell Therapeutics, Inc., priority 1997, dated 1999)
